Source: patent US9738634B2, “Heterocyclic amide compound and herbicide” (SYNGENTA PARTICIPATIONS AG, priority 2013, dated 2017)

Experiments:
Type in all cases: in vivo
corn [1] = assay: Test Example 4: foliar treatment, effect on crop; c: corn; conditions: treatment dosage 315 g/ha
Outline: (§1)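 Seeds are spot-sown into sterilized diluvial soil and covered with about 1.5 cm of soil. After 14 days' greenhouse growth at 25 to 30° C, plants are sprayed on stems and leaves with diluted emulsion at the stated g/ha rate, then scored at 3 weeks.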

crabgrass [2] = assay: Test Example 4: weedkilling efficacy by foliar treatment; D: crabgrass; conditions: treatment dosage 315 g/ha
Outline: as §1

wheat [3] = assay: Test Example 3: soil treatment, effect on crop; e: wheat; conditions: treatment dosage 315 g/ha
Outline: (§2)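 Crop and weed responses were judged three weeks after a uniform surface spray of the water-diluted emulsion at the given g/ha rate. Seeds sat beneath about 1.5 cm of sterilized diluvial soil, and boxes stood in a greenhouse at 25 to 30° C.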

bulrush [4] = assay: Test Example 2: weedkilling efficacy, growth period weed treatment in the submerged state; B: bulrush; conditions: treatment dosage 252 g/ha
Outline: (§3)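 Weeds treated at the 1-2 leaf stage by application of diluted emulsion onto floodwater (4 cm depth, alluvial soil) at specified g/ha. Grown in greenhouse at 25 to 30° C; herbicidal effect rated three weeks after treatment.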

beet [5] = assay: Test Example 3: soil treatment, effect on crop; f: beet; conditions: treatment dosage 315 g/ha
Outline: as §2

barnyard grass [6] = assay: Test Example 2: weedkilling efficacy, growth period weed treatment in the submerged state; A: barnyard grass; conditions: treatment dosage 252 g/ha
Outline: as §3

bulrush [7] = assay: Test Example 1: weedkilling efficacy, preemergent weed treatment in the submerged state; B: bulrush; conditions: treatment dosage 252 g/ha
Outline: (§4)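 Pots of alluvial soil were flooded to a 4 cm depth. Mixed weed seeds were sown and 2.5 leaf-stage rice seedlings transplanted. On sowing day, water-diluted emulsion was applied to the water surface (dose in g/ha). After 3 weeks at 25–30 °C, effects were rated.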

chickweed [8] = assay: Test Example 3: weedkilling efficacy through soil treatment; N: chickweed; conditions: treatment dosage 315 g/ha
Outline: as §2

fig-leafed goosefoot [9] = assay: Test Example 4: weedkilling efficacy by foliar treatment; M: fig-leafed goosefoot; conditions: treatment dosage 315 g/ha
Outline: as §1

catchweed [10] = assay: Test Example 3: weedkilling efficacy through soil treatment; O: catchweed; conditions: treatment dosage 315 g/ha
Outline: as §2

Indian mallow [11] = assay: Test Example 3: weedkilling efficacy through soil treatment; K: Indian mallow; conditions: treatment dosage 315 g/ha
Outline: as §2

catchweed [12] = assay: Test Example 4: weedkilling efficacy by foliar treatment; O: catchweed; conditions: treatment dosage 315 g/ha
Outline: as §1

fig-leafed goosefoot [13] = assay: Test Example 3: weedkilling efficacy through soil treatment; M: fig-leafed goosefoot; conditions: treatment dosage 315 g/ha
Outline: as §2

crabgrass [14] = assay: Test Example 3: weedkilling efficacy through soil treatment; D: crabgrass; conditions: treatment dosage 315 g/ha
Outline: as §2

wheat [15] = assay: Test Example 4: foliar treatment, effect on crop; e: wheat; conditions: treatment dosage 315 g/ha
Outline: as §1

green foxtail [16] = assay: Test Example 3: weedkilling efficacy through soil treatment; E: green foxtail; conditions: treatment dosage 315 g/ha
Outline: as §2

chickweed [17] = assay: Test Example 4: weedkilling efficacy by foliar treatment; N: chickweed; conditions: treatment dosage 315 g/ha
Outline: as §1

green foxtail [18] = assay: Test Example 4: weedkilling efficacy by foliar treatment; E: green foxtail; conditions: treatment dosage 315 g/ha
Outline: as §1

directly sown rice [19] = assay: Test Example 4: foliar treatment, effect on crop; b: directly sown rice; conditions: treatment dosage 315 g/ha
Outline: as §1

Italian ryegrass [20] = assay: Test Example 3: weedkilling efficacy through soil treatment; I: Italian ryegrass; conditions: treatment dosage 315 g/ha
Outline: as §2

corn [21] = assay: Test Example 3: soil treatment, effect on crop; c: corn; conditions: treatment dosage 315 g/ha
Outline: as §2

barnyard grass [22] = assay: Test Example 1: weedkilling efficacy, preemergent weed treatment in the submerged state; A: barnyard grass; conditions: treatment dosage 252 g/ha
Outline: as §4

birds-eye speedwell = assay: Test Example 3: weedkilling efficacy through soil treatment; p: birds-eye speedwell; conditions: treatment dosage 315 g/ha
Outline: as §2

oval-leafed pondweed [23] = assay: Test Example 2: weedkilling efficacy, growth period weed treatment in the submerged state; C: oval-leafed pondweed; conditions: treatment dosage 252 g/ha
Outline: as §3

black-grass [24] = assay: Test Example 3: weedkilling efficacy through soil treatment; H: black-grass; conditions: treatment dosage 315 g/ha
Outline: as §2

transplanted rice = assay: Test Example 1: preemergent weed treatment in the submerged state, effect on crop; a: transplanted rice; conditions: treatment dosage 252 g/ha
Outline: as §4

soybean [25] = assay: Test Example 3: soil treatment, effect on crop; d: soybean; conditions: treatment dosage 315 g/ha
Outline: as §2

redroot pigweed [26] = assay: Test Example 3: weedkilling efficacy through soil treatment; L: redroot pigweed; conditions: treatment dosage 315 g/ha
Outline: as §2

beet [27] = assay: Test Example 4: foliar treatment, effect on crop; f: beet; conditions: treatment dosage 315 g/ha
Outline: as §1

oval-leafed pondweed [28] = assay: Test Example 1: weedkilling efficacy, preemergent weed treatment in the submerged state; C: oval-leafed pondweed; conditions: treatment dosage 252 g/ha
Outline: as §4

soybean [29] = assay: Test Example 4: foliar treatment, effect on crop; d: soybean; conditions: treatment dosage 315 g/ha
Outline: as §1

directly sown rice [30] = assay: Test Example 3: soil treatment, effect on crop; b: directly sown rice; conditions: treatment dosage 315 g/ha
Outline: as §2

black-grass [31] = assay: Test Example 4: weedkilling efficacy by foliar treatment; H: black-grass; conditions: treatment dosage 315 g/ha
Outline: as §1

wild oat [32] = assay: Test Example 3: weedkilling efficacy through soil treatment; G: wild oat; conditions: treatment dosage 315 g/ha
Outline: as §2

wild oat [33] = assay: Test Example 4: weedkilling efficacy by foliar treatment; G: wild oat; conditions: treatment dosage 315 g/ha
Description: Testing of Weedkilling Efficacy by Foliar Treatment
Sterilized diluvial soil was introduced into 21 cm long, 13 cm wide, 7 cm deep plastic boxes, and seeds of crabgrass, green foxtail, barnyard grass, wild oat, black-grass, Italian ryegrass, common wind-grass, Indian mallow, redroot pigweed, fig-leafed goosefoot, chickweed, catchweed, birds-eye speedwell, corn, soybean, rice, wheat, beet and rapeseed were each spot-sown, and covered with about 1.5 cm of soil, then the plants were grown in a greenhouse at 25 to 30° C.
After they had grown for 14 days, emulsions of compounds of the present invention prepared according to compounding example 2 were diluted with water to give the specified dosages, and applied uniformly onto the stem and leaf parts with a small sprayer. 3 weeks after the pesticide treatment the effect on each type of plant was investigated on the basis of the assessment criteria of test example 1.
A: barnyard grass, B: bulrush, C: oval-leafed pondweed, D: crabgrass, E: green foxtail, F: barnyard grass, G: wild oat, H: black-grass, I: Italian ryegrass, J: common wind-grass, K: Indian mallow, L: redroot pigweed, M: fig-leafed goosefoot, N: chickweed, O: catchweed, p: birds-eye speedwell, a: transplanted rice, b: directly sown rice, c: corn, d: soybean, e: wheat, f: beet, g: rapeseed
Further, pesticide dosage (g/ha) indicates the concentration regulated such that treatment was with only the stated number of grams (g), when calculated per hectare (ha).

Indian mallow [34] = assay: Test Example 4: weedkilling efficacy by foliar treatment; K: Indian mallow; conditions: treatment dosage 315 g/ha
Outline: as §1

redroot pigweed [35] = assay: Test Example 4: weedkilling efficacy by foliar treatment; L: redroot pigweed; conditions: treatment dosage 315 g/ha
Outline: as §1

Italian ryegrass [36] = assay: Test Example 4: weedkilling efficacy by foliar treatment; I: Italian ryegrass; conditions: treatment dosage 315 g/ha
Outline: as §1

SMILES	c (corn) effect on crop grade (corn [1])	D (crabgrass) weedkilling efficacy grade (crabgrass [2])	e (wheat) effect on crop grade (wheat [3])	B (bulrush) weedkilling efficacy grade (bulrush [4])	A (barnyard grass) weedkilling efficacy grade (barnyard grass [6])	B (bulrush) weedkilling efficacy grade (bulrush [7])	N (chickweed) weedkilling efficacy grade (chickweed [8])	M (fig-leafed goosefoot) weedkilling efficacy grade (fig-leafed goosefoot [9])	O (catchweed) weedkilling efficacy grade (catchweed [10])	K (Indian mallow) weedkilling efficacy grade (Indian mallow [11])	O (catchweed) weedkilling efficacy grade (catchweed [12])	M (fig-leafed goosefoot) weedkilling efficacy grade (fig-leafed goosefoot [13])	D (crabgrass) weedkilling efficacy grade (crabgrass [14])	e (wheat) effect on crop grade (wheat [15])	E (green foxtail) weedkilling efficacy grade (green foxtail [16])	N (chickweed) weedkilling efficacy grade (chickweed [17])	E (green foxtail) weedkilling efficacy grade (green foxtail [18])	b (directly sown rice) effect on crop grade (directly sown rice [19])	I (Italian ryegrass) weedkilling efficacy grade (Italian ryegrass [20])	c (corn) effect on crop grade (corn [21])	further results
CC1=C(c2ccccc2)C(=O)N(C(C)(C)C(=O)Nc2cc(Cl)cc(Br)n2)CO1 [B-2-36]	3 (weed kill ratio 40% or more, less than 70%)	5 (weed kill ratio 90% or more, (practically complete withering))	0 (weed kill ratio 5% or less (practically no effect))	5 (weed kill ratio 90% or more, (practically complete withering))	5 (weed kill ratio 90% or more, (practically complete withering))	5 (weed kill ratio 90% or more, (practically complete withering))	4 (weed kill ratio 70% or more, less than 90%)	4 (weed kill ratio 70% or more, less than 90%)	5 (weed kill ratio 90% or more, (practically complete withering))	4 (weed kill ratio 70% or more, less than 90%)	4 (weed kill ratio 70% or more, less than 90%)	3 (weed kill ratio 40% or more, less than 70%)	5 (weed kill ratio 90% or more, (practically complete withering))	0 (weed kill ratio 5% or less (practically no effect))	5 (weed kill ratio 90% or more, (practically complete withering))	4 (weed kill ratio 70% or more, less than 90%)	5 (weed kill ratio 90% or more, (practically complete withering))	4 (weed kill ratio 70% or more, less than 90%)	4 (weed kill ratio 70% or more, less than 90%)	1 (weed kill ratio 5% or more, less than 20%)	f (beet) effect on crop grade (beet [5]): 3 (weed kill ratio 40% or more, less than 70%); A (barnyard grass) weedkilling efficacy grade (barnyard grass [22]): 5 (weed kill ratio 90% or more, (practically complete withering)); P (birds-eye speedwell) weedkilling efficacy grade (birds-eye speedwell): 4 (weed kill ratio 70% or more, less than 90%); C (oval-leafed pondweed) weedkilling efficacy grade (oval-leafed pondweed [23]): 5 (weed kill ratio 90% or more, (practically complete withering)); H (black-grass) weedkilling efficacy grade (black-grass [24]): 5 (weed kill ratio 90% or more, (practically complete withering)); a (transplanted rice) effect on crop grade (transplanted rice): 0 (weed kill ratio 5% or less (practically no effect)); d (soybean) effect on crop grade (soybean [25]): 1 (weed kill ratio 5% or more, less than 20%); L (redroot pigweed) weedkilling efficacy grade (redroot pigweed [26]): 4 (weed kill ratio 70% or more, less than 90%); f (beet) effect on crop grade (beet [27]): 3 (weed kill ratio 40% or more, less than 70%); C (oval-leafed pondweed) weedkilling efficacy grade (oval-leafed pondweed [28]): 5 (weed kill ratio 90% or more, (practically complete withering)); d (soybean) effect on crop grade (soybean [29]): 3 (weed kill ratio 40% or more, less than 70%); b (directly sown rice) effect on crop grade (directly sown rice [30]): 4 (weed kill ratio 70% or more, less than 90%); H (black-grass) weedkilling efficacy grade (black-grass [31]): 3 (weed kill ratio 40% or more, less than 70%); G (wild oat) weedkilling efficacy grade (wild oat [32]): 1 (weed kill ratio 5% or more, less than 20%); G (wild oat) weedkilling efficacy grade (wild oat [33]): 1 (weed kill ratio 5% or more, less than 20%); K (Indian mallow) weedkilling efficacy grade (Indian mallow [34]): 4 (weed kill ratio 70% or more, less than 90%); L (redroot pigweed) weedkilling efficacy grade (redroot pigweed [35]): 3 (weed kill ratio 40% or more, less than 70%); I (Italian ryegrass) weedkilling efficacy grade (Italian ryegrass [36]): 0 (weed kill ratio 5% or less (practically no effect))
CC1=C(c2ccccc2)C(=O)N(C(C)(C)C(=O)Nc2cccc(C(F)(F)F)n2)CO1 [B-2-58]	3 (weed kill ratio 40% or more, less than 70%)	5 (weed kill ratio 90% or more, (practically complete withering))	0 (weed kill ratio 5% or less (practically no effect))	5 (weed kill ratio 90% or more, (practically complete withering))	3 (weed kill ratio 40% or more, less than 70%)	5 (weed kill ratio 90% or more, (practically complete withering))	4 (weed kill ratio 70% or more, less than 90%)	3 (weed kill ratio 40% or more, less than 70%)	0 (weed kill ratio 5% or less (practically no effect))	1 (weed kill ratio 5% or more, less than 20%)	1 (weed kill ratio 5% or more, less than 20%)	4 (weed kill ratio 70% or more, less than 90%)	5 (weed kill ratio 90% or more, (practically complete withering))	1 (weed kill ratio 5% or more, less than 20%)	5 (weed kill ratio 90% or more, (practically complete withering))	3 (weed kill ratio 40% or more, less than 70%)	5 (weed kill ratio 90% or more, (practically complete withering))	4 (weed kill ratio 70% or more, less than 90%)	5 (weed kill ratio 90% or more, (practically complete withering))	1 (weed kill ratio 5% or more, less than 20%)	A (barnyard grass) weedkilling efficacy grade (barnyard grass [22]): 5 (weed kill ratio 90% or more, (practically complete withering)); P (birds-eye speedwell) weedkilling efficacy grade (birds-eye speedwell): 5 (weed kill ratio 90% or more, (practically complete withering)); C (oval-leafed pondweed) weedkilling efficacy grade (oval-leafed pondweed [23]): 4 (weed kill ratio 70% or more, less than 90%); H (black-grass) weedkilling efficacy grade (black-grass [24]): 4 (weed kill ratio 70% or more, less than 90%); a (transplanted rice) effect on crop grade (transplanted rice): 0 (weed kill ratio 5% or less (practically no effect)); d (soybean) effect on crop grade (soybean [25]): 0 (weed kill ratio 5% or less (practically no effect)); L (redroot pigweed) weedkilling efficacy grade (redroot pigweed [26]): 3 (weed kill ratio 40% or more, less than 70%); f (beet) effect on crop grade (beet [27]): 4 (weed kill ratio 70% or more, less than 90%); C (oval-leafed pondweed) weedkilling efficacy grade (oval-leafed pondweed [28]): 5 (weed kill ratio 90% or more, (practically complete withering)); d (soybean) effect on crop grade (soybean [29]): 3 (weed kill ratio 40% or more, less than 70%); b (directly sown rice) effect on crop grade (directly sown rice [30]): 3 (weed kill ratio 40% or more, less than 70%); H (black-grass) weedkilling efficacy grade (black-grass [31]): 5 (weed kill ratio 90% or more, (practically complete withering)); G (wild oat) weedkilling efficacy grade (wild oat [32]): 3 (weed kill ratio 40% or more, less than 70%); G (wild oat) weedkilling efficacy grade (wild oat [33]): 3 (weed kill ratio 40% or more, less than 70%); K (Indian mallow) weedkilling efficacy grade (Indian mallow [34]): 3 (weed kill ratio 40% or more, less than 70%); L (redroot pigweed) weedkilling efficacy grade (redroot pigweed [35]): 3 (weed kill ratio 40% or more, less than 70%); I (Italian ryegrass) weedkilling efficacy grade (Italian ryegrass [36]): 5 (weed kill ratio 90% or more, (practically complete withering))
